Active and inactive are the calls of the source. The rule behind the calls is not given here.
Assays:
[1] = molecular target: T1, Glutamate--cysteine ligase catalytic subunit (Mus musculus) (UniProt P97494); assay: Inhibition of Mus musculus (mouse) glutamate cysteine ligase isolated from liver at 200 uM
T1 sequence (whole entry): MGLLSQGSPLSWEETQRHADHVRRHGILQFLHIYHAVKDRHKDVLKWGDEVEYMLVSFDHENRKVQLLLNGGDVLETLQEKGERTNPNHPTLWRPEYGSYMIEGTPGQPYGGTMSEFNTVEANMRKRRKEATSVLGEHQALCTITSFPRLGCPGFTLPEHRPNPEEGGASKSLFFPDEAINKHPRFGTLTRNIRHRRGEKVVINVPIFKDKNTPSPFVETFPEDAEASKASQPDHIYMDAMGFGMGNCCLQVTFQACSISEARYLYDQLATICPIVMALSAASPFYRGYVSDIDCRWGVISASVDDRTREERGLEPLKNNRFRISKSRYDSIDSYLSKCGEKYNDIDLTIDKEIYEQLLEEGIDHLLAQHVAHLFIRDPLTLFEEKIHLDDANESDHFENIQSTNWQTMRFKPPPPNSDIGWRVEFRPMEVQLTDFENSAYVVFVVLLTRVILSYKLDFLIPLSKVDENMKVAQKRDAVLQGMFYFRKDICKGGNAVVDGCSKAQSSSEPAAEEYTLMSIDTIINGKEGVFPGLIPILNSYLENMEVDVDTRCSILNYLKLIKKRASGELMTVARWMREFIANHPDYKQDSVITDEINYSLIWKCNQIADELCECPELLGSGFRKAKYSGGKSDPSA

[2] = molecular target: T2, Probable glutathione reductase 2 (Caenorhabditis elegans) (UniProt P30635); assay: Inhibition of Setaria cervi glutathione reductase at 2 to 200 uM
T2 sequence (whole entry): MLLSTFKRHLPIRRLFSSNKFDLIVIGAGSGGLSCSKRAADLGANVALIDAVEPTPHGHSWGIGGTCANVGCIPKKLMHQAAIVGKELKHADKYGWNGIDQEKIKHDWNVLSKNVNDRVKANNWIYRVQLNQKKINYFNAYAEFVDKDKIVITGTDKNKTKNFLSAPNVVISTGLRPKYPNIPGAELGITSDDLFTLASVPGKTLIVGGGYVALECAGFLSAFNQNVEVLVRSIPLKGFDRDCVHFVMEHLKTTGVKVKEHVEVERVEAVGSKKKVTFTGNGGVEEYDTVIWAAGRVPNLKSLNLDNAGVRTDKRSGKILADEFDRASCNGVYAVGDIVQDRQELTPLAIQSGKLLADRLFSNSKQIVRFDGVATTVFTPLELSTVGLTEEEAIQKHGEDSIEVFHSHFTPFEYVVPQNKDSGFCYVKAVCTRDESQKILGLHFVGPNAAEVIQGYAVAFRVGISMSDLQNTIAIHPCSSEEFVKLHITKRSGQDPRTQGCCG

[3] = molecular target: T3, Glutathione reductase, mitochondrial (Mus musculus) (UniProt P47791); assay: Inhibition of Mus musculus (mouse) glutathione reductase isolated from liver at 200 uM
T3 sequence (whole entry): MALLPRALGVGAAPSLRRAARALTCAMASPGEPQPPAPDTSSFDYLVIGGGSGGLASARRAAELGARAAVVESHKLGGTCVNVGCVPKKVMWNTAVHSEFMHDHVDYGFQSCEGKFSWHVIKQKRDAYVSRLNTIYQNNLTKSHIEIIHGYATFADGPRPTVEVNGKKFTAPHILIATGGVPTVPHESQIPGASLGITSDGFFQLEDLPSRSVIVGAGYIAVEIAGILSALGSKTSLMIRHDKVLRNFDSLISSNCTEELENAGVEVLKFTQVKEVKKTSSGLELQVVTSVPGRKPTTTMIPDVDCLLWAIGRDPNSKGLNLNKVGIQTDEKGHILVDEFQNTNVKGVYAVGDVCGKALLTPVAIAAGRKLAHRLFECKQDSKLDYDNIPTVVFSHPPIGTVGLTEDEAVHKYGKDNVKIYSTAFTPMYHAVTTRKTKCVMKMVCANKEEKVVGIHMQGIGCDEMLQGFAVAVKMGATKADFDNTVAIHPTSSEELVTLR

[4] = molecular target: T4, Glutamate--cysteine ligase (Onchocerca volvulus) (UniProt Q9NFN6); assay: Inhibition of Setaria cervi glutamate cysteine ligase at 0.25 to 200 uM
T4 sequence (whole entry): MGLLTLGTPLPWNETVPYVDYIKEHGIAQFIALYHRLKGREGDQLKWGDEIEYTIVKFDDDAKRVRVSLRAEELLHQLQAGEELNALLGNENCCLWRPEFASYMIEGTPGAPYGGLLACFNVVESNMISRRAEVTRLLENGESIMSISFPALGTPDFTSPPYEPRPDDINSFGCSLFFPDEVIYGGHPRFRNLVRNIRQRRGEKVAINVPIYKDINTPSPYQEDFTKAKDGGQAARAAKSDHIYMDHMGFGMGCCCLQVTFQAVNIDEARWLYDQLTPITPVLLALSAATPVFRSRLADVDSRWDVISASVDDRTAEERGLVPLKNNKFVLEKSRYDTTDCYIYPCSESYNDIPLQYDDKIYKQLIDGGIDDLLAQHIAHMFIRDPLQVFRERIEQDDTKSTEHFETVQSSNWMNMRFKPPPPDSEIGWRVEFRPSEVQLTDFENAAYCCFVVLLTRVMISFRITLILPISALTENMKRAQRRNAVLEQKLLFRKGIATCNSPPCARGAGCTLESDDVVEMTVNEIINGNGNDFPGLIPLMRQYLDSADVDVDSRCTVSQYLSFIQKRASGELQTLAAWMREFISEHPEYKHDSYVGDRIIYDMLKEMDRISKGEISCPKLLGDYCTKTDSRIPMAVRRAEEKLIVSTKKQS

SMILES	inhibition [3]	also measured
CO[C@@H]1[C@H]2OC(C)(C)O[C@H]2O[C@@H]1[C@H](CC(N)=O)N(Cc1ccccc1)C(=O)Nc1cccc(C(C)=O)c1	–	inhibition [1]: 18%
CN(C)c1ccc2nc3ccc(=[N+](C)C)cc-3sc2c1	–	inhibition [2]: 24%
CC1(C)O[C@H]2O[C@H](C(CC(=O)NO)NCc3ccccc3)[C@H](OCc3ccccc3)[C@H]2O1 (stereo partly drawn)	inactive	–
CCCCCCCCCCCCNC(CC(=O)NO)[C@H]1O[C@@H]2OC(C)(C)O[C@@H]2[C@H]1OCc1ccccc1 (stereo partly drawn)	inactive	–
CCCCCCCNC(CC(=O)O)[C@@H]1O[C@@H]2OC(C)(C)O[C@@H]2[C@H]1OC (stereo partly drawn)	inactive	–
CO[C@@H]1[C@H]2OC(C)(C)O[C@H]2O[C@@H]1[C@@H]1CC(=O)N(Cc2ccccc2)C(=O)N1Cc1ccccc1	–	inhibition [1]: inactive
NCCSSCCN	–	inhibition [4]: 19%
CCOC(=O)C[C@@H](Nc1ccccc1O)[C@H]1O[C@@H]2OC(C)(C)O[C@@H]2[C@H]1OC	inactive	–
CC1(C)O[C@H]2O[C@H]([C@@H]3CC(=O)N(Cc4ccccc4)C(=O)N3Cc3ccccc3)[C@H](OCc3ccccc3)[C@H]2O1	inactive	–
CC(=O)c1cccc(N2C(=O)[C@H](CC(C)C)N(C[C@H]3O[C@@H]4OC(C)(C)O[C@@H]4[C@H]3OCc3ccccc3)C2=O)c1	inactive	–
CCCCCCCNC(CC(=O)NO)[C@H]1O[C@@H]2OC(C)(C)O[C@@H]2[C@H]1OCc1ccccc1 (stereo partly drawn)	inactive	–
CO[C@@H]1[C@H]2OC(C)(C)O[C@H]2O[C@@H]1C1CC(=O)N(Cc2ccccc2)C(=O)N1CCC(C)CC(C)C (stereo partly drawn)	inactive	–
CO[C@@H]1[C@H]2OC(C)(C)O[C@H]2O[C@H]1C(CC(=O)O)NCCC(C)CC(C)C (stereo partly drawn)	inactive	–

Continued, in another order:

inhibition [3]	SMILES	also measured
inactive	CCOC(=O)CC([C@H]1O[C@@H]2OC(C)(C)O[C@@H]2[C@H]1OC)N1CCC[C@H]1C(=O)OCC1c2ccccc2-c2ccccc21 (stereo partly drawn)	–
inactive	CCOC(=O)CC([C@H]1O[C@@H]2OC(C)(C)O[C@@H]2[C@H]1OC)N(CCC(C)CC(C)C)C(=O)NCc1ccccc1 (stereo partly drawn)	–
inactive	CCOC(=O)C[C@H](C[C@H]1O[C@@H]2OC(C)(C)O[C@@H]2[C@H]1OC)NCc1ccccc1O	–
inactive	COc1ccc(CN2C(=O)N(c3ccc(C(C)=O)cc3)C(=O)C[C@H]2[C@H]2O[C@@H]3OC(C)(C)O[C@@H]3[C@H]2OCc2ccccc2)cc1	–
inactive	CCCc1nccn1C(CC(=O)OCC)[C@H]1O[C@@H]2OC(C)(C)O[C@@H]2[C@H]1OC (stereo partly drawn)	–
71%	CCCCCCCCCCCCCCCCNC(CC(=O)NO)[C@H]1O[C@@H]2OC(C)(C)O[C@@H]2[C@H]1OC (stereo partly drawn)	–
inactive	CC1(C)O[C@H]2O[C@H](C(CC(=O)NO)N3CCCCC3)[C@H](OCc3ccccc3)[C@H]2O1 (stereo partly drawn)	–
inactive	CCOC(=O)CC(Nc1ccco1)[C@H]1O[C@@H]2OC(C)(C)O[C@@H]2[C@H]1OC (stereo partly drawn)	–
inactive	CCCCCCCN[C@@H](CC(=O)OCC)[C@@H]1O[C@@H]2OC(C)(C)O[C@@H]2[C@H]1OC	–
inactive	CCOC(=O)CC(Nc1ccco1)[C@H]1O[C@@H]2OC(C)(C)O[C@@H]2[C@H]1OCc1ccccc1 (stereo partly drawn)	–

Reference: ChEMBL document CHEMBL3045894, “GLUTATHIONE SYNTHESIS IN FILARIAL WORMS: AN ATTRACTIVE TARGET FOR THE DESIGN AND SYNTHESIS OF NEW ANTIFILARIALS” (Med Chem Res, 2004)
